This assay has as its system MT-4 cells. Put plainly: MT-4 proliferation assay. The format is cell-based, human. On the procedure:
MT-4 Proliferation Assay:
Compounds were tested in a standardized high-throughput 384-well assay format. Each compound was serially diluted 3-fold in 100% DMSO in polypropylene 384-well plates using a Biomek FX Workstation, and 0.4 μL compound added to an assay plate containing 40 μL RPMI media. Compounds were arranged in a horizontal pattern, with 10 concentrations per compound, and 8 compounds added per plate. Due to low DMSO tolerability, the final DMSO concentration never exceeded 0.5% (v/v). Each assay plate contained 10 μM Puromycin and 0.5% DMSO in RPMI-1640 as positive and negative controls respectively. MT-4 cells (HTLV-1 transformed, human T lymphoblastoid cells, NIH Aids Reagent program) were added in volumes of 35 μL per well and 2,000 cells per well using a Biotek uFlow Workstation (Biotek, Winooski, Vt.), and the plates subsequently incubated for 5 days at 37° C. in an incubator set at 5% CO2 and 90% humidity.
After 5 days, 22 μL Cell Titer Glo (Promega) was added to the assay plates with a Biotek uFlow Workstation. Plates were subsequently placed on a Perkin Elmer Envision Plate Reader for 5 minutes before the luminescence signal was read.

Where [1] appears, read: Homo sapiens, MT4, 120 h, Table 1, 5 days, Cell Titer Glo, method text calls it EC50, read-out: MT4 Assay, (IC50).

This note sets out measurements from patent US9458145B2, “Benzimidazole derivatives as bromodomain inhibitors” (Gilead Sciences, Inc., priority 2013, dated 2016).

In general, IC50 refers to the concentration that inhibits the measured activity by half.

Like-named read-outs stand apart in the source and are kept apart here.

`Cc1noc(C)c1-c1cc(S(=O)(=O)NC2CCCC2)c2nc(NCC3CC3)[nH]c2c1` [Compound 1020-1, N-Cyclopentyl-2-(cyclopropylmethylamino)-6-(3,5-dimethylisoxazol-4-yl)-1H-benzo[d]imidazole-4-sulfonamide]: the IC50 under setting [1] worked out at 193 nM.

Regarding `CSc1nc2c(S(=O)(=O)NC3CCCC3)cc(-c3c(C)noc3C)cc2[nH]1` [Compound 1020-4, N-Cyclopentyl-6-(3,5-dimethylisoxazol-4-yl)-2-(methylthio)-1H-benzo[d]imidazole-4-sulfonamide], the IC50 under setting [1] worked out at 192 nM. `Cc1noc(C)c1-c1cc(S(=O)(=O)NC2CCCC2)c2nc([S+](C)[O-])[nH]c2c1` (stereo not shown) [Compound 1020-5, N-Cyclopentyl-6-(3,5-dimethylisoxazol-4-yl)-2-(methylsulfinyl)-1H-benzo[d]imidazole-4-sulfonamide]: the IC50 (Homo sapiens, MT4, 120 h, read-out: MT4 Assay, (IC50, nM)) was found to be 329 nM.

In the case of `Cc1cnn(C)c1-c1cc(-c2c(C)noc2C)cc2nc(C3CC3)[nH]c12` [Compound 1020-12, 4-(2-Cyclopropyl-7-(1,4-dimethyl-1H-pyrazol-5-yl)-1H-benzo[d]imidazol-5-yl)-3,5-dimethylisoxazole], the IC50 under setting [1] came to 21.3 nM. Take `Cc1noc(C)c1-c1cc(-c2cccnc2-c2ccccc2)c2nc(C3CC3)[nH]c2c1` [Compound 1020-19, 4-(2-Cyclopropyl-4-(2-phenylpyridin-3-yl)-1H-benzo[d]imidazol-6-yl)-3,5-dimethylisoxazole]: the IC50 under setting [1] was 24.4 nM.

For the compound `CC/C=C(\CC)c1cc(-c2c(C)noc2C)cc2nc(C3CC3)[nH]c12` [Compound 1020-28, (E)-4-(2-Cyclopropyl-4-(hex-3-en-3-yl)-1H-benzo[d]imidazol-6-yl)-3,5-dimethylisoxazole], the IC50 under setting [1] came to 51.6 nM. For `Cc1noc(C)c1-c1cc(/C=C/c2ccccc2)c2[nH]c(C3CC3)nc2c1` [Compound 1020-37, (E)-4-(2-cyclopropyl-4-styryl-1H-benzo[d]imidazol-6-yl)-3,5-dimethylisoxazole], the IC50 under setting [1] stood at 518 nM. With `Cc1noc(C)c1-c1cc(C(C)c2ccc(F)cc2)c2[nH]c(C3CC3)nc2c1` (stereo not shown) [Compound 1020-44, 4-(2-Cyclopropyl-4-(1-(4-fluorophenyl)ethyl)-1H-benzo[d]imidazol-6-yl)-3,5-dimethylisoxazole], under setting [1], the IC50 was 86.1 nM. `Cc1noc(C)c1-c1cc(NC2CCCC2)c2nc(C3CC3)[nH]c2c1` [Compound 1020-50, N-Cyclopentyl-2-cyclopropyl-6-(3,5-dimethylisoxazol-4-yl)-1H-benzo[d]imidazol-4-amine]: the IC50 under setting [1] was 353 nM. Consider `Cc1ccnc(C)c1-c1cc(-c2c(C)noc2C)cc2nc(C3CC3)[nH]c12` [Compound 1020-57, 4-(2-Cyclopropyl-7-(2,4-dimethylpyridin-3-yl)-1H-benzo[d]imidazol-5-yl)-3,5-dimethylisoxazole], for which the IC50 under setting [1] worked out at 13.6 nM. As to `Cc1n[nH]c(C)c1-c1cc(-c2c(C)noc2C)cc2nc(C3CC3)n(C)c12` [Compound 1020-72, 4-(2-cyclopropyl-7-(3,5-dimethyl-1H-pyrazol-4-yl)-1-methyl-1H-benzo[d]imidazol-5-yl)-3,5-dimethylisoxazole], the IC50 under setting [1] worked out at 6.5 nM. As for `Cc1ccc2ncccc2c1-c1cc(-c2c(C)noc2C)cc2nc(C3CC3)n(C)c12` [Compound 1020-74, 4-(2-Cyclopropyl-1-methyl-7-(6-methylquinolin-5-yl)-1H-benzo[d]imidazol-5-yl)-3,5-dimethylisoxazole], under setting [1], the IC50 was determined as 15.3 nM.

As for `Cc1n[nH]c(C)c1-c1cc(-c2c(C)noc2C)cc2[nH]c(C3CCC3)nc12` [Compound 1020-75, 4-(2-Cyclobutyl-4-(3,5-dimethyl-1H-pyrazol-4-yl)-1H-benzo[d]imidazol-6-yl)-3,5-dimethylisoxazole], where the note is “Table 1, 5 days, Cell Titer Glo, method text calls it EC50, read-out: MT4 Assay, (IC50)”, the IC50 amounted to 18.4 nM. For the compound `Cc1nc2cc(-c3c(C)noc3C)cc(-c3c(C)n[nH]c3C)c2[nH]1` [Compound 1020-77, 4-(7-(3,5-Dimethyl-1H-pyrazol-4-yl)-2-methyl-1H-benzo[d]imidazol-5-yl)-3,5-dimethylisoxazole], the IC50 under setting [1] amounted to 39.4 nM. Same read-out and setting: for `Cc1n[nH]c(C)c1-c1cc(-c2c(C)noc2C)cc2nc(C3CC3(F)F)[nH]c12` (stereo not shown) [Compound 1020-78, 4-(2-(2,2-Difluorocyclopropyl)-7-(3,5-dimethyl-1H-pyrazol-4-yl)-1H-benzo[d]imidazol-5-yl)-3,5-dimethylisoxazole] the value was 25.7 nM; for `Cc1n[nH]c(C)c1-c1cc(-c2c(C)noc2C)cc2[nH]c(NCC3CC3)nc12` [Compound 1020-79, N-(Cyclopropylmethyl)-4-(3,5-dimethyl-1H-pyrazol-4-yl)-6-(3,5-dimethylisoxazol-4-yl)-1H-benzo[d]imidazol-2-amine], 33.8 nM. On to `Cc1n[nH]c(C)c1-c1cc(-c2c(C)noc2C)cc2[nH]c(NC3CC3)nc12` [Compound 1020-81, N-Cyclopropyl-4-(3,5-dimethyl-1H-pyrazol-4-yl)-6-(3,5-dimethylisoxazol-4-yl)-1H-benzo[d]imidazol-2-amine], for which the IC50 under setting [1] amounted to 7.6 nM. As to `Cc1ccnc(C)c1-c1cc(-c2c(C)noc2C)cc2[nH]cnc12` [Compound 1020-84, 4-(4-(2,4-Dimethylpyridin-3-yl)-1H-benzo[d]imidazol-6-yl)-3,5-dimethylisoxazole], under setting [1], the IC50 came to 236 nM.

With `Cc1ccc2ncccc2c1-c1cc(-c2c(C)noc2C)cc2[nH]c(-c3cnn(C)c3)nc12` [Compound 1020-88, 3,5-Dimethyl-4-(2-(1-methyl-1H-pyrazol-4-yl)-4-(6-methylquinolin-5-yl)-1H-benzo[d]imidazol-6-yl)isoxazole], the IC50 under setting [1] is 45.2 nM. With `Cc1ccc2ncccc2c1-c1cc(-c2c(C)noc2C)cc2[nH]c(C(O)CCO)nc12` (stereo not shown) [Compound 1020-89, 1-(6-(3,5-dimethylisoxazol-4-yl)-4-(6-methylquinolin-5-yl)-1H-benzo[d]imidazol-2-yl)propane-1,3-diol], the IC50 under setting [1] came to 104 nM. In the case of `COc1nc2c(-c3c(C)ccc4ncccc34)cc(-c3c(C)noc3C)cc2[nH]1` [Compound 1020-90, 4-(2-methoxy-4-(6-methylquinolin-5-yl)-1H-benzo[d]imidazol-6-yl)-3,5-dimethylisoxazole], under setting [1], the IC50 came to 25 nM. Still for that read-out and setting: for `Cc1ccc2ncccc2c1-c1cc(-c2c(C)noc2C)cc2[nH]c(C(F)(F)F)nc12` [Compound 1020-92, 3,5-Dimethyl-4-(4-(6-methylquinolin-5-yl)-2-(trifluoromethyl)-1H-benzo[d]imidazol-6-yl)isoxazole] the value was 73.1 nM; for `Cc1n[nH]c(C)c1-c1cc(-c2c(C)noc2C)cc2nc(N)[nH]c12` [Compound 1020-96, 4-(3,5-Dimethyl-1H-pyrazol-4-yl)-6-(3,5-dimethylisoxazol-4-yl)-1H-benzo[d]imidazol-2-amine], 318 nM. In the case of `Cc1noc(C)c1-c1cc(C(O)(c2ccccc2)c2ccccc2)c2nc(C3CC3)[nH]c2c1` [Compound 1020-102, (2-Cyclopropyl-6-(3,5-dimethylisoxazol-4-yl)-1H-benzo[d]imidazol-4-yl)diphenylmethanol], under setting [1], the IC50 worked out at 49.7 nM.

In the case of `CCC(CC)c1cc(-c2c(C)noc2C)cc2[nH]c(C3CC3)nc12` [Compound 1020-120, 4-(2-Cyclopropyl-4-(pentan-3-yl)-1H-benzo[d]imidazol-6-yl)-3,5-dimethylisoxazole], under setting [1], the IC50 came to 48.8 nM.
